Test results: patent US7696201B2, “Modulators of muscarinic receptors” (Vertex Pharmaceuticals Incorporated, priority 2006, dated 2010)

Assays:
Format in all cases: cell-based
M4 muscarinic receptor = biological target: T1, M4 muscarinic receptor (Homo sapiens, UniProt P08173); test: Functional mobilization of intracellular calcium (FLIPR), M4-CHO cells; conditions: for Emax: 100% efficacy is the maximum response obtained with the Carbachol control; for M4 Activity: CHO cells expressing M4, calcium mobilization
T1 construct: expressed in transfected cells; host or cells: CHO (M4-CHO)
T1 sequence (P08173 1-479): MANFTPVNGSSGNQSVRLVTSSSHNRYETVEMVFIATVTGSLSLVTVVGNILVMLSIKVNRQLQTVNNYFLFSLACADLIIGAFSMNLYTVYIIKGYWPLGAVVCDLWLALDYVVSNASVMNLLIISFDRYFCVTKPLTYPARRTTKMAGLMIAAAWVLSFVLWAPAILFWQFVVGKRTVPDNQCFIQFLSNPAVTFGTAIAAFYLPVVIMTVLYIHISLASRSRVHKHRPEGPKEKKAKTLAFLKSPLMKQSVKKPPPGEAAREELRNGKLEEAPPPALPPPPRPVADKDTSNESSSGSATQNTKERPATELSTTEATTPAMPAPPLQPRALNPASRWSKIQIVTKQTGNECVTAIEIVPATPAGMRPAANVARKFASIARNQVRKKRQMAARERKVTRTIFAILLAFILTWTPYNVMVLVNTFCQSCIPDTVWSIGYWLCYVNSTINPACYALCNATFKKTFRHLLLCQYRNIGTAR
Experimental: (§1) Functional Mobilization of Intracellular Calcium to Determine Muscarinic Receptor Activity:
(§2) CHO cells expressing muscarinic receptors (M1 to M5) are grown as monolayers in tissue culture flasks at 37° C. in a humidified atmosphere containing 5% CO2 and passaged every 3-5 days. The growth media is Dulbecco's modified eagles medium (DMEM, Gibco Cat# 12430-054), containing 25 mM Hepes and supplemented with Fetal Bovine Serum (Hyclone, cat# SH30071.03), 0.1 mM of MEM non-essential amino acids (GIBCO, Cat# 11140-050), 1 mM MEM Sodium Pyruvate (GIBCO Cat# 11360-070) and 100 units/ml of Penicillin G and 100 μg/ml of Streptomycin (GIBCO Cat# 15140-122). The recombinant muscarinic receptor cell lines are grown under antibiotic pressure with media containing 25 μg/ml zeocin and 500 μg/ml G418 (M1-CHO), 4 μg/ml puromycin, 50 μg/ml zeocin and 2.5 μg/ml blasticidin (M2 and M4-CHO) or 50 μg/ml zeocin and 4 μg/ml puromycin (M3 and M5-CHO).
(§3) Cells are harvested at 80-90% confluence using Versene (GIBCO Cat# 15040-066), collected by centrifugation and seeded 18-24 hours prior to running the calcium assay at a density of 5,000-10,000 cells/well in […], clear-bottomed 384-well plates (BD Biocoat, poly-D-lysine, Cat#356663). The day of the experiment, the cells are washed with a plate washer (Bioteck Instruments, ELX 405) using Bath 1 buffer (140-mM NaCl, 4.5-mM KCl, 2-mM CaCl2, 1-mM MgCl2, 10-mM Hepes-Na, 10-mM Glucose, pH 7.4, with NaOH) containing 1 mM Probenecid. Next, the calcium dye Fluo-3 (25 μl/well of Fluo-3 AM at 4 μM, Molecular Probes F-1241, in Bath 1 buffer containing 1 mM Probenecid) is added to the 25 μl of Bath 1 remaining in each well after the plate wash and the dye is loaded at 37° C. in the tissue culture incubator for 60-90 min. The fluorescent dye is removed using the plate washer with Bath 1 containing 1 mM Probenecid, leaving 25 μl/well of this solution after the wash. Alternatively, cells can be loaded with the calcium indicator from Molecular Devices (Calcium 3 Assay Reagents, Cat # R7181) adding 5 μl of a 5× solution dye in Bath 1 containing 1 mM Probenecid (10 ml per dye flask cat# R7182 to generate a solution 20×) to 20 μl of the same buffer. After loading for 60 min, the experiment can be run without having to remove the dye.
(§4) Compounds are prepared at a 2× fold concentration in a 96-well plate (round bottom, Costar Corning cat# 3656), by reconstituting the pre-spotted compounds in bath 1 containing 1 mM probenecid. The final concentration DMSO is 0.5%, and the amount of DMSO is normalized across the assay plate. To determine an agonist action of the compounds on muscarinic receptors, the reconstituted compounds are added (25 μl compound/well) to the cell assay plate (containing 25 μl/well) using the multi-channel robotic system of the FLIPR 3 Instrument (Molecular Devices, Sunnyvale, Calif.). To determine a functional inhibitory action of the compounds on muscarinic receptors, the reconstituted compounds are added (25 μl compound/well) to the assay plate and pre-incubated for 15 min prior to adding 25 μl of Carbachol at 3× the EC80 for each muscarinic subtype. Alternatively, the compounds can be co-applied simultaneously with the agonist. In both assay modes, the fluorescence is recorded for 60 sec (excitation wavelength is […] and emission wavelength 540 nm) using the FLIPR 3 instrument.
(§5) The potency, efficacy and selectivity of the muscarinic compounds were evaluated by screening the compound activity across the whole family (M1 to M5 cells). Compounds were also screened for activity on other proteins such as other GPCRs and ion channels to determine selectivity on M4 receptors.
(§6) Examples of activities and efficacies of the muscarinic compounds of formulae (I, Ia, Ib, Ic, and Id) on modulating M1 and M4 receptors are shown below in Table 3. […]

M2 muscarinic receptor = biological target: T2, M2 muscarinic receptor (Homo sapiens, UniProt P08172); test: Functional mobilization of intracellular calcium (FLIPR), M2-CHO cells; conditions: for Emax: 100% efficacy is the maximum response obtained with the Carbachol control; for M2 Activity: CHO cells expressing M2, calcium mobilization
T2 construct: expressed in transfected cells; host or cells: CHO (M2-CHO)
T2 sequence (P08172 1-466): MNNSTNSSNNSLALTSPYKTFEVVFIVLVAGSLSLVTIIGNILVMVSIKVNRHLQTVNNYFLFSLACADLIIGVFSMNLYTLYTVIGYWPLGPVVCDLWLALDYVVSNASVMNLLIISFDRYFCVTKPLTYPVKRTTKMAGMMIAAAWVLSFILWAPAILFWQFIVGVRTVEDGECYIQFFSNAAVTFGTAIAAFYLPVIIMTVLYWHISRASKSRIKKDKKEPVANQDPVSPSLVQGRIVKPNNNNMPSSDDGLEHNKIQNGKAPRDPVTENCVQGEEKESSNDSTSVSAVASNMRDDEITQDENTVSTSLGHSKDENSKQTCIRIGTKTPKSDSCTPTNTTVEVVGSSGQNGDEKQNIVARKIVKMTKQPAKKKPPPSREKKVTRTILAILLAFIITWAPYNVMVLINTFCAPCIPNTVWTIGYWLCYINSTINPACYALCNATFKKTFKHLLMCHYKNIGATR
Experimental: as §1, §2, §3, §4, §5, §6

M3 muscarinic receptor = biological target: T3, M3 muscarinic receptor (Homo sapiens, UniProt P20309); test: Functional mobilization of intracellular calcium (FLIPR), M3-CHO cells; conditions: for Emax: 100% efficacy is the maximum response obtained with the Carbachol control; for M3 Activity: CHO cells expressing M3, calcium mobilization
T3 construct: expressed in transfected cells; host or cells: CHO (M3-CHO)
Experimental: as §1, §2, §3, §4, §5, §6

M1 muscarinic receptor = biological target: T4, M1 muscarinic receptor (Homo sapiens, UniProt P11229); test: Functional mobilization of intracellular calcium (FLIPR), M1-CHO cells; conditions: for Emax: 100% efficacy is the maximum response obtained with the Carbachol control; for M1 Activity: CHO cells expressing M1, calcium mobilization
T4 construct: expressed in transfected cells; host or cells: CHO (M1-CHO)
T4 sequence (P11229 1-460): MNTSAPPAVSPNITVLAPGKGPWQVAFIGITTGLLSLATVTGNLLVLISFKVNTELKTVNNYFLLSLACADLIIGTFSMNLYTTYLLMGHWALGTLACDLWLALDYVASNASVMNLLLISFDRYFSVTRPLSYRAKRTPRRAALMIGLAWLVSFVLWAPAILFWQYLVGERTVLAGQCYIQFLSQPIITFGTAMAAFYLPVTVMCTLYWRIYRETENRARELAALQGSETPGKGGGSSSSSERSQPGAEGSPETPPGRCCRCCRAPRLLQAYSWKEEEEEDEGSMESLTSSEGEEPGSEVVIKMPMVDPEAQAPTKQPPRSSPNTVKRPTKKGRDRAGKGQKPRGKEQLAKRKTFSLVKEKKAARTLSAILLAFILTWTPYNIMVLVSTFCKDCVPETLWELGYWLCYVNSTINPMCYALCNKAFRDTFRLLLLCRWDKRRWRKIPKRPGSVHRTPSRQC
Experimental: as §1, §2, §3, §4, §5, §6

T3 sequence (P20309 whole entry): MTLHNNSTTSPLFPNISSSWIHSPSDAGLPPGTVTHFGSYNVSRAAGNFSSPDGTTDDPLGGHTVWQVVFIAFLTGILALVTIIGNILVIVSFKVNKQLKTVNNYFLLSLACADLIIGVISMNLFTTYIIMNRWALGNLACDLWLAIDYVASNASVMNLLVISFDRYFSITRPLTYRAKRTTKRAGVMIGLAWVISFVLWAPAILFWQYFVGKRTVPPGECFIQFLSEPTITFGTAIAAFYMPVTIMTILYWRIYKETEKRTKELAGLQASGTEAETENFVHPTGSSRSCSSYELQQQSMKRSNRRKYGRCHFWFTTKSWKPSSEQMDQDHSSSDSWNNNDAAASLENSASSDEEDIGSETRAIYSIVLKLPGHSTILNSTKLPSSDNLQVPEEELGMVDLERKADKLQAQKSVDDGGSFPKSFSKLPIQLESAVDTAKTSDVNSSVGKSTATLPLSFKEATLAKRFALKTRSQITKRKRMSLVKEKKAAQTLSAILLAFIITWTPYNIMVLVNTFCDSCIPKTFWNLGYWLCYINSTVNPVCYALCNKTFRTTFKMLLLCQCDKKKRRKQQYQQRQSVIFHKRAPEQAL

Structure (SMILES)	Emax (M4 muscarinic receptor)	M4 Activity (M4 muscarinic receptor)	Emax (M2 muscarinic receptor)	M2 Activity (M2 muscarinic receptor)	Emax (M3 muscarinic receptor)	M3 Activity (M3 muscarinic receptor)	Emax (M1 muscarinic receptor)	M1 Activity (M1 muscarinic receptor)
CCC(C)(C)C1CCC(N2CCC3(CC2)OC(=O)Nc2ccccc23)CC1 (stereo not shown) [Compound 35]	< 25%	+ (activity was measured to be greater than 5.0 μM)	< 25%	+ (activity was measured to be greater than 5.0 μM)	< 25%	+ (activity was measured to be greater than 5.0 μM)	25 to 100%	+++ (activity was measured to be less than 2.0 μM)
O=C1Nc2ccccc2C2(CCN(C3CCN(c4cnccn4)CC3)CC2)O1 [Compound 74, 1′-(1-(pyrazin-2-yl)piperidin-4-yl)spiro[benzo[d][1,3]oxazine-4,4′piperidin]-2(1H)-one]	25 to 100%	+++ (activity was measured to be less than 2.0 μM)	25 to 100%	+++ (activity was measured to be less than 2.0 μM)	25 to 100%	+ (activity was measured to be greater than 5.0 μM)	> 100%	+++ (activity was measured to be less than 2.0 μM)
O=C1Nc2ccccc2C2(CCN(CC3CCCOC3)CC2)O1 (stereo not shown) [Compound 11]	25 to 100%	+++ (activity was measured to be less than 2.0 μM)	25 to 100%	+ (activity was measured to be greater than 5.0 μM)	< 25%	+ (activity was measured to be greater than 5.0 μM)	25 to 100%	+++ (activity was measured to be less than 2.0 μM)
CCOC(=O)N1CCC(N2CCC3(CC2)OC(=O)Nc2ccccc23)CC1 [Compound 62]	25 to 100%	+++ (activity was measured to be less than 2.0 μM)	25 to 100%	+++ (activity was measured to be less than 2.0 μM)	25 to 100%	+++ (activity was measured to be less than 2.0 μM)	25 to 100%	+++ (activity was measured to be less than 2.0 μM)
CC(C)CCN1CCC2(CC1)OC(=O)Nc1ccccc12 [Compound 76, 1′-isopentylspiro[benzo[d][1,3]oxazine-4,4′-piperidin]-2(1H)-one]	25 to 100%	+++ (activity was measured to be less than 2.0 μM)	25 to 100%	+ (activity was measured to be greater than 5.0 μM)	< 25%	+ (activity was measured to be greater than 5.0 μM)	25 to 100%	+++ (activity was measured to be less than 2.0 μM)
